Source: patent US9320280B2, “Methods and compositions for deterring feeding/repelling the brown marmorated stink bug (BMSB), Halyomorpha halys” (The United States of America, as Represented by the …, priority 2012, dated 2016)
Entries after “also recorded” stand apart in the source; their conditions may differ.

Legend:
Halyomorpha halys [1] = experiment: Optimized closed-air petri dish bioassay: feeding deterrence on green beans; type: in vivo; design: key to significance of repelling insect from treated bean relative to pentane control: p<0.05 (*); p<0.01 (**); p<0.001 (***); n.s.: compound tested was not significant in repelling insect from treated bean; conditions: for overall repellent effectiveness (conclusion): all age groups and sexes of H. halys
Description: Optimized petri dish bioassays: Insects tested were moved in groups from Thermo Forma cages to plastic petri dishes for food and water deprivation 16-20 hours before bioassays. Adults were separated by age and sex and held in groups of five, nymphs were held in groups of 20. Bioassays were conducted from April-June of 2012 between 8 a.m. and 4 p.m., in a fume hood lined with black paper and covered with black curtain to prevent external visual stimuli. The fume hood was illuminated by a single 60 watt light bulb with a light intensity of 800 LUX, placed 50 cm above bio assay arenas, with 26°-28° C. temperature and 50% relative humidity. Glass petri dishes (10 cm diameter) were used for the bioassay arena and were lined with Whatman's #1 filter paper (9 cm) that was changed before each assay. Adults were bioassayed individually. Nymphs were tested in groups of four because in preliminary assays they were observed continually walking for up to four hours unless conspecifics were present.
We then used the optimized solvent (i.e., pentane) to test the effects of different repellents on deterring H. halys feeding on organic green beans in petri dishes. Insects were tested in a glass Petri dish for their attraction/aversion to 1 μg and 100 μg concentrations of isolongifolanone and isolongifolenone (International Flavors and Fragrances, NY), C-13, and E-2-decenal, diluted in pentane. Pure pentane was tested as a control. Whatman's #1 filter paper (9 cm) was placed in petri dish and 2× one-inch diameter impressions were made with a metal circle. One circle was treated with 75 ul of pentane (control) and the other with pentane+repellant (treatment) and dried for five minutes. One-inch sections of organic green beans were placed over the treated or untreated circle. Starved insects were introduced to the petri dish assay arena and observed at three time points in 45 minute increments for 2.25 hours. Their location was recorded as feeding with stylet inserted on the treatment (i.e., odor) bean, blank bean, or off bean (i.e., walking off of food source or no movement in petri dish and not on bean). Individuals were only used for one bioassay at the adult or nymphal stage in their lifetime. Petri dishes were rinsed with water daily and baked overnight at 100° C., and were rinsed with acetone after every six uses.
Optimized petri dish bioassays were analyzed for each age group, sex, and treatment using Likelihood Ratio tests (JMP®). Percent response for each choice per compound was averaged over the three time periods observed. The likelihood of the three choices was set to the level determined by the pentane control for each age/sex group, and the confidence interval set at 95%. P-values are indicated as follows: *=0.05; **=0.01; ***=0.001.

Halyomorpha halys [2] = experiment: Open-air small cage bioassay: feeding deterrence/repellency on treated peaches and apples; type: in vivo; conditions: open-air system
Description: Small Cage Bioassays: Nymphs and adults were tested for effects of feeding deterrents/repellents from islongifolanone, islongifolenone, C-13, and E-2-decenal applied to organic peaches and gala apples in a small cage. Insects were starved for 16 hours prior to experiments before being transferred in groups of 15 (nymphs) or 10 (adults male or female) to two gallon containers containing one treated fruit, and observed hourly for the number of nymphs on the fruit. Experiments were conducted in a fume hood under the same light and heat conditions as above. Different concentrations of isolongifolanone, isolongifolenone, C-13, and E-2-decenal were tested both individually and combined (equal amount of each component), with a final concentration of 70-80 mg/fruit chosen as an effective treatment. Compounds (400 mg) were combined with the emulsifier Tween-80 (2 mg), mixed with water (H2O 10 ml) in glass vial (20 ml), and sonicated for 20 min. The solution containing emulsifier Tween-80 (2 mg) in 10 ml water was used as control. […]
Small cage bioassays were analyzed by replicate, treatment, and time using repeated measures ANOVA and multiple comparisons for treatments were tested using Tukeys HSD, Model: Nymphs on Fruit=Treatment, Rep (Treatment), Time, Treatment*Time.

Halyomorpha halys [3] = conditions: for feeding on solvent-treated versus untreated green bean: starved adult males ages 3-7 days, 35 μl of solvent on 1-inch section of green bean
Description: We tested the effects of solvent on H. halys survival and feeding behavior to optimize the solvent used in petri dish assays. Mortality of 3rd stage nymphs, and adult males and females (ages 3-7 days or 13-23 days into adult stage), was quantified as the percentage of individuals who died after exposure to methylene chloride (DCM) after 2.25 hours. […] Insects were starved for 16-20 hours prior to being exposed to 1 inch cut sections of organic green beans in a 10 cm petri covered glass petri dish. One bean was coated with […] solvent while the other was untreated. Behaviors of young adult male individuals were recorded at three time points (45, 90, and 135 minutes) as feeding on the blank (untreated) bean, feeding on the odor (solvent-treated) bean, or sitting on the wall of the petri dish. Percent response for each choice was averaged over the three time periods.

[4] = Nymph (3rd stage), starved, 1 μg in pentane on filter paper under green bean
[5] = Nymph (3rd stage), starved, 100 μg in pentane on filter paper under green bean
[6] = Old Adult Male (13-23 days), 1 μg
[7] = Old Adult Male (13-23 days), 100 μg
[8] = Young Adult Male (3-7 days), 1 μg
[9] = Young Adult Male (3-7 days), 100 μg
[10] = starved nymphs (3rd stage), 1 μg, FIG. 6A
[11] = starved nymphs (3rd stage), 100 μg, FIG. 6A
[12] = young adult males (3-7 days), 100 μg, FIG. 6B
[13] = old adult females, 100 μg, FIG. 6E
[14] = young adult females, 100 μg, FIG. 6C

CCCCCCCCCCCCC [C-13, tridecane]
significance of repelling insect from treated bean relative to pentane control (Halyomorpha halys [1]; [4]): *** (p<0.001 (***)) | significance of repelling insect from treated bean relative to pentane control (Halyomorpha halys [1]; [5]): ** (p<0.01 (**)) | significance of repelling insect from treated bean relative to pentane control (Halyomorpha halys [1]; Old Adult Female, 1 μg): n.s. | significance of repelling insect from treated bean relative to pentane control (Halyomorpha halys [1]; Old Adult Female, 100 μg): n.s. | significance of repelling insect from treated bean relative to pentane control (Halyomorpha halys [1]; [6]): n.s. | significance of repelling insect from treated bean relative to pentane control (Halyomorpha halys [1]; [7]): * (p<0.05 (*)) | significance of repelling insect from treated bean relative to pentane control (Halyomorpha halys [1]; Young Adult Female, 1 μg): n.s. | significance of repelling insect from treated bean relative to pentane control (Halyomorpha halys [1]; Young Adult Female, 100 μg): n.s. | significance of repelling insect from treated bean relative to pentane control (Halyomorpha halys [1]; [8]): n.s. | significance of repelling insect from treated bean relative to pentane control (Halyomorpha halys [1]; [9]): * (p<0.05 (*)) | repellency/deterrence across age groups and sexes (summary) (Halyomorpha halys [1]; concentration not given, diluted in pentane): deterrent to young males and old adult males and nymphs; also recorded: deterred H. halys feeding | likelihood to feed on treated green bean (in words) (Halyomorpha halys [1]; old adult males (13-23 days), 1 μg, FIG. 6D): significantly less likely to feed | likelihood to feed on treated green bean (in words) (Halyomorpha halys [1]; [10]): significantly less likely to feed | likelihood to feed on treated green bean (in words) (Halyomorpha halys [1]; [11]): significantly less likely to feed | likelihood to feed on treated green bean (in words) (Halyomorpha halys [1]; [12]): significantly less likely to feed | repellency in small cage tests compared with petri dish (Halyomorpha halys [2]): decreased repellency

CCCCCCC/C=C/C=O [E-2-decenal]
repellency/deterrence across age groups and sexes (summary of Table 1) (Halyomorpha halys [1]; 1 μg): effective at deterring Nymphs, young adult males, and old adult females | repellency/deterrence across age groups and sexes (summary of Table 1) (Halyomorpha halys [1]; 100 μg concentration): effective at deterring old adult males | significance of repelling insect from treated bean relative to pentane control (Halyomorpha halys [1]; [4]): ** (p<0.01 (**)) | significance of repelling insect from treated bean relative to pentane control (Halyomorpha halys [1]; [5]): n.s. | significance of repelling insect from treated bean relative to pentane control (Halyomorpha halys [1]; Old Adult Female, 1 μg): n.s. | significance of repelling insect from treated bean relative to pentane control (Halyomorpha halys [1]; Old Adult Female, 100 μg): * (p<0.05 (*)) | significance of repelling insect from treated bean relative to pentane control (Halyomorpha halys [1]; [6]): n.s. | significance of repelling insect from treated bean relative to pentane control (Halyomorpha halys [1]; [7]): * (p<0.05 (*)) | significance of repelling insect from treated bean relative to pentane control (Halyomorpha halys [1]; Young Adult Female, 1 μg): n.s. | significance of repelling insect from treated bean relative to pentane control (Halyomorpha halys [1]; Young Adult Female, 100 μg): n.s. | significance of repelling insect from treated bean relative to pentane control (Halyomorpha halys [1]; [8]): ** (p<0.01 (**)) | significance of repelling insect from treated bean relative to pentane control (Halyomorpha halys [1]; [9]): n.s. | likelihood to feed on treated green bean (in words) (Halyomorpha halys [1]; young adult males (3-7 days), 1 μg, FIG. 6B): significantly less likely to feed

CC(C)=O [acetone]
feeding on solvent-treated versus untreated green bean (Halyomorpha halys [3]): significantly less likely to feed

CCO [ethanol]
feeding on solvent-treated versus untreated green bean (Halyomorpha halys [3]): Less feeding aversion

CCCCCC [hexane]
feeding on solvent-treated versus untreated green bean (Halyomorpha halys [3]): significantly less likely to feed

CC1(C)C2=CC(=O)CC(C)(C)[C@]23CC[C@H]1C3 [isolongifolenone]
repellency/deterrence across age groups and sexes (summary of Table 1) (Halyomorpha halys [1]; 100 μg concentration): deterring all groups except for old adult males | significance of repelling insect from treated bean relative to pentane control (Halyomorpha halys [1]; [4]): *** (p<0.001 (***)) | significance of repelling insect from treated bean relative to pentane control (Halyomorpha halys [1]; [5]): ** (p<0.01 (**)) | significance of repelling insect from treated bean relative to pentane control (Halyomorpha halys [1]; Old Adult Female, 1 μg): n.s. | significance of repelling insect from treated bean relative to pentane control (Halyomorpha halys [1]; Old Adult Female, 100 μg): * (p<0.05 (*)) | significance of repelling insect from treated bean relative to pentane control (Halyomorpha halys [1]; [6]): n.s. | significance of repelling insect from treated bean relative to pentane control (Halyomorpha halys [1]; [7]): n.s. | significance of repelling insect from treated bean relative to pentane control (Halyomorpha halys [1]; Young Adult Female, 1 μg): n.s. | significance of repelling insect from treated bean relative to pentane control (Halyomorpha halys [1]; Young Adult Female, 100 μg): *** (p<0.001 (***)) | significance of repelling insect from treated bean relative to pentane control (Halyomorpha halys [1]; [8]): n.s. | significance of repelling insect from treated bean relative to pentane control (Halyomorpha halys [1]; [9]): *** (p<0.001 (***)) | overall repellent effectiveness (conclusion) (Halyomorpha halys [1]): highly effective repellents | likelihood to feed on treated green bean (in words) (Halyomorpha halys [1]; [13]): significantly less likely to feed; also recorded: deterred | likelihood to feed on treated green bean (in words) (Halyomorpha halys [1]; [10]): significantly less likely to feed | likelihood to feed on treated green bean (in words) (Halyomorpha halys [1]; [11]): significantly less likely to feed | likelihood to feed on treated green bean (in words) (Halyomorpha halys [1]; [14]): significantly less likely to feed; also recorded: deterred | likelihood to feed on treated green bean (in words) (Halyomorpha halys [1]; [12]): significantly less likely to feed

ClCCl [methylene chloride (DCM), methylene chloride]
mortality (susceptibility) after exposure to solvent (Halyomorpha halys [3]; 3rd stage nymphs, adult males and females, after 2.25 hours): young adult males were the most susceptible | feeding on solvent-treated versus untreated green bean (Halyomorpha halys [3]): significantly less likely to feed

CCCCC [pentane]
feeding on solvent-treated versus untreated green bean (Halyomorpha halys [3]): slight preference for pentane-treated green beans over the untreated control bean

isolongifolanone
repellency/deterrence across age groups and sexes (summary of Table 1) (Halyomorpha halys [1]; 100 μg concentration): significantly repellent to all age groups and sexes | significance of repelling insect from treated bean relative to pentane control (Halyomorpha halys [1]; [5]): *** (p<0.001 (***)) | significance of repelling insect from treated bean relative to pentane control (Halyomorpha halys [1]; Old Adult Female, 100 μg): *** (p<0.001 (***)) | significance of repelling insect from treated bean relative to pentane control (Halyomorpha halys [1]; [7]): *** (p<0.001 (***)) | significance of repelling insect from treated bean relative to pentane control (Halyomorpha halys [1]; Young Adult Female, 100 μg): *** (p<0.001 (***)) | significance of repelling insect from treated bean relative to pentane control (Halyomorpha halys [1]; [9]): *** (p<0.001 (***)) | overall repellent effectiveness (conclusion) (Halyomorpha halys [1]): highly effective repellents | likelihood to feed on treated green bean (in words) (Halyomorpha halys [1]; [13]): significantly less likely to feed; also recorded: deterred | likelihood to feed on treated green bean (in words) (Halyomorpha halys [1]; old adult males (13-23 days), 100 μg, FIG. 6D): significantly less likely to feed | likelihood to feed on treated green bean (in words) (Halyomorpha halys [1]; [11]): significantly less likely to feed | likelihood to feed on treated green bean (in words) (Halyomorpha halys [1]; [14]): significantly less likely to feed; also recorded: deterred | likelihood to feed on treated green bean (in words) (Halyomorpha halys [1]; [12]): significantly less likely to feed
